Earlier results in patent US20070141182A1, “Combination of multiple nonteroidal antiinflammatory drugs and muscle relaxants for local treatment of musculoskeletal pain” (priority 2005, published 2007).

Tests used:
[1] = compared with more traditional NSAIDs
[2] = for patient ratings of efficacy versus placebo: topical commercial forms
[3] = 75 mg/ml in the donor gel, human skin
[4] = dissolved in lecithin microemulsion gel
[5] = 2.5% gel daily, 10 healthy subjects
[6] = topical gel, 6 patients

CC(=O)Oc1ccccc1C(=O)O [ASA, acetylsalicylic acid]
decrease in pain (VAS) (oral ASA 500 mg): 15.4%
patients with a poor response (oral administration): 79%

CC(C(=O)O)c1ccc(-c2ccccc2)c(F)c1 (centres unmarked) [Flurbiprofen, flurbiprofen]
COX-1 / COX-2 isoform selectivity of inhibition (COX-1 and COX-2): inhibit both COX-1 and COX-2 equally

COc1ccc2cc(CCC(C)=O)ccc2c1 [Nabumetone]
incidence of gastric lesions [1]: lower incidence of gastric lesions
COX-1 / COX-2 isoform selectivity of inhibition (COX-1 and COX-2): more selectively inhibit COX-2

CN1C(C(=O)Nc2ccccn2)=C(O)c2ccccc2S1(=O)=O [Piroxicam, piroxicam]
patient ratings of efficacy versus placebo [2]: superior efficacy
COX-1 / COX-2 isoform selectivity of inhibition (COX-1 and COX-2): preferentially inhibit COX-1

CC(C)(C)NCC(O)c1cc(Br)no1 (centres unmarked) [broxaterol]
flux through the skin [3]: 47 μg.h^−1 cm^−2

O=C(O)Cc1ccccc1Nc1c(Cl)cccc1Cl [diclofenac]
steady-state flux [4]: about 1 μg h^−1 cm^−2

CCc1cccc2c3c([nH]c12)C(CC)(CC(=O)O)OCC3 (centres unmarked) [etodolac]
incidence of gastric lesions [1]: lower incidence of gastric lesions
COX-1 / COX-2 isoform selectivity of inhibition (COX-1 and COX-2): more selectively inhibit COX-2

CC(C)Cc1ccc(C(C)C(=O)O)cc1 (centres unmarked) [ibuprofen]
patient ratings of efficacy versus placebo [2]: superior efficacy
COX-1 / COX-2 isoform selectivity of inhibition (COX-1 and COX-2): inhibit both COX-1 and COX-2 equally

COc1ccc2c(c1)c(CC(=O)O)c(C)n2C(=O)c1ccc(Cl)cc1 [indomethacin]
efficacy of topical versus oral administration ([2]; human, in vivo, po): as effective as therapeutic doses of oral indomethacin
patient ratings of efficacy versus placebo [2]: superior efficacy
COX-1 / COX-2 isoform selectivity of inhibition (COX-1 and COX-2): preferentially inhibit COX-1
steady-state flux [4]: about 1 μg h^−1 cm^−2

CC(C(=O)O)c1cccc(C(=O)c2ccccc2)c1 (centres unmarked) [ketoprofen]
patient ratings of efficacy versus placebo [2]: superior efficacy
plasma concentrations as share of the daily dose applied [5]: 2.6%
ketoprofen concentration in capsular sample [6]: 2.35 µg/g
ketoprofen concentration in intra-articular adipose tissue [6]: 4.7 µg/g
ketoprofen concentration in synovial fluid [6]: 1.4 µg/g

Cc1ccc(Cl)c(Nc2ccccc2C(=O)O)c1Cl [meclofenamate]
COX-1 / COX-2 isoform selectivity of inhibition (COX-1 and COX-2): inhibit both COX-1 and COX-2 equally

CS(=O)(=O)c1ccc(C2=C(c3ccccc3)C(=O)OC2)cc1 [rofecoxib]
COX-1 / COX-2 isoform selectivity of inhibition (COX-1 and COX-2): highly selective and potent inhibitors of COX-2

O=C(Oc1ccccc1C(=O)O)c1ccccc1O [salsalate]
inhibition of prostaglandins (prostaglandins): only weakly inhibit prostaglandins

magnesium choline trisalicylate
inhibition of prostaglandins (prostaglandins): only weakly inhibit prostaglandins
